The record followed here is BindingDB's records for doi:10.1021/cc990074a (Ariad Pharmaceuticals, 2000).

Structures are written as SMILES. A value given as a limit tells only on which side of the number the result lay.

For the assay, the target named is Proto-oncogene tyrosine-protein kinase Src (Homo sapiens). Kind of assay: Compounds were tested for binding to Src SH2 using a fluorescence polarization binding assay according to methods previously described. IC50 values were assigned to individual compounds according to their competitive binding affinity versus a high-affinity peptide probe, fluorescein-pTyr-pTyr-pTyr-Ile-Glu-NH2. Background: In fluorescence polarisation assays a small probe gives low polarisation when free and higher when bound to something large.
As to `COc1ccc(C(C)NC(=O)C(Cc2ccc(OP(=O)(O)O)cc2)NC(C)=O)cc1C(N)=O` (stereo not drawn) [Src SH2 inhibitor, 1b], the IC50 stood at 37 µM.

Turning to `NC(=O)c1cc(CNC(=O)c2ccc(OP(=O)(O)O)cc2)ccc1OCC1CCCCC1` [Src SH2 inhibitor, 3], the IC50 turned out to be 6.5 µM.

For the compound `O=C(NCc1ccc(OCC2CCCCC2)cc1)c1ccc(OP(=O)(O)O)cc1` [Src SH2 inhibitor, 4], the IC50 is > 100 µM.

By IC50 is commonly meant the concentration needed to halve the response being measured.
